The test system of data set [1] is RAW264.7 macrophages. As to the kind of experiment: Foam cell formation, Oil Red O staining. Type of data set: cell-based, murine. The settings on record: n = 3; for effect of co-treatment on the protective (foam cell inhibiting) effect of ELA-11: ox-LDL 50 μg/ml 48 h + ELA-11, modulator 1 μM, vs ox-LDL + ELA-11 group. As for the experimental part: To assess the impact of ELA-11 on foam cell formation, RAW264.7 macrophages were pretreated with ELA-11 (1 μM) for 2 h before being exposed to ox-LDL (50 μg/ml) for 48 h.
(§1) For foam cell formation assays, cells were seeded in 6-well plates at 1 × 10^6 cells/well. Cells were pretreated with ELA-11 (1 μM) for 2 h before exposure to oxidized low-density lipoprotein (ox-LDL, 50 or 100 μg/ml) for 48 h. Where indicated, cells were cotreated with tunicamycin (1 μM, ER stress activator), ML221 (1 μM, APJ receptor antagonist), Recilisib (1 μM, AKT activator), or 4-PBA (1 μM, ER stress inhibitor).
Cells were fixed with 4% paraformaldehyde for 30 min, rinsed with 60% isopropanol, and stained with Oil Red O working solution for 10 min. After washing with distilled water, stained cells were imaged using a light microscope. For quantification, staining intensity was analyzed using ImageJ software.

Data set [2] relates to RAW264.7 macrophages. As to the kind of experiment: CCK-8 cell viability assay. Type of data set: cell-based, murine. Here is the method: Finally, the cytotoxicity of mPEG@ELA-11 was assessed using the CCK-8 assay. […] The absence of cytotoxicity is a critical factor for the potential clinical application of mPEG@ELA-11.
Cell viability was assessed using the CCK-8 kit (Biosharp, China) according to the manufacturer’s instructions. Cells were seeded in 96-well plates at 1 × 10^5 cells/ml and treated with various compounds for 24 to 72 h before analysis.
(In general: Tetrazolium dyes change colour on reduction, which living cells bring about.)

Data set [3] relates to ER stress-associated proteins (p-PERK, p-eIF2α, CHOP, and ATF4). The data set can be described thus: Western blot of ER stress markers. The data set is classed as cell-based, murine. The conditions noted are these: ox-LDL + ELA-11 + modulator (1 μM), n = 3. As for the experimental part:
as §1
(§2) Cells were lysed in RIPA buffer supplemented with protease and phosphatase inhibitors. Equal protein amounts were separated by 10% sodium dodecyl sulfate–polyacrylamide gel electrophoresis, followed by transfer to polyvinylidene fluoride membranes. Membranes were blocked with 5% milk and incubated overnight at 4 °C with primary antibodies against p-PERK, PERK, p-eIF2α, eIF2α, ATF4, CHOP, p-AKT, AKT, and GAPDH, followed by horseradish peroxidase-conjugated secondary antibodies. Protein bands were visualized using enhanced chemiluminescence reagents.
A general note: In western blotting, separated proteins are transferred to a membrane and probed.

Another data set deals with AKT phosphorylation. As to the kind of experiment: Western blot of AKT phosphorylation. The data set is classed as cell-based, murine. The conditions noted are these: ox-LDL + ELA-11 + modulator (1 μM), n = 3. As for the experimental part:
as §1, §2

For data set [4], the system named is ApoE^-/- mice. The data set can be described thus: Atherosclerosis in ApoE-/- mice fed a high-fat diet. The conditions noted are these: HFD. Type of data set: in vivo. The text has this:
To evaluate the therapeutic efficacy of ELA-11 in AS, ApoE^-/- mice fed a high-fat diet (HFD) were utilized as an established AS model. Male ApoE^-/- mice were randomly allocated into 3 groups (n = 6 per group): a control group fed a normal chow diet (NCD), an HFD group treated with phosphate-buffered saline (HFD + PBS), and a treatment group treated with ELA-11 (HFD + ELA-11). ApoE^-/- mice were initiated on HFD at 8 weeks of age. Four weeks later, at the beginning of the fifth week of HFD feeding, mice in the HFD + ELA-11 group received intraperitoneal injections of ELA-11 (1 mg/kg) every 3 days for a total of 19 injections. Mice were sacrificed at 20 weeks of age (Fig. 4A).
To evaluate the therapeutic potential of mPEG@ELA-11 NPs in vivo, a series of experiments were conducted using ApoE^-/- mice fed an HFD for 3 months to induce AS. The mice were randomly assigned to 4 groups (n = 6): a negative control group fed an NCD, an HFD group treated with PBS (HFD + PBS), an HFD group treated with free ELA-11 (HFD + ELA-11), and an HFD group treated with mPEG@ELA-11 NPs (HFD + mPEG@ELA-11). The administration route, frequency, and dosage were the same as described above.
Male ApoE^-/- mice (26 to 31 g, 8 weeks old) were obtained from GemPharmatech Co., Ltd. and housed under specific pathogen-free conditions. Mice were randomly allocated into 4 groups (n = 6/group): NCD, HFD + PBS, HFD + ELA-11, and HFD + mPEG@ELA-11. The HFD (Research Diets D12079B) consisted of 21% fat and 0.21% cholesterol. Drug treatments (1 mg/kg) were administered intraperitoneally every 3 days for 8 weeks, beginning at week 13. All animal procedures were approved by the institutional animal care committee.

Data set [5] is described as follows: Nanoparticle size by DLS and TEM. The data set is classed as physicochemical. Here is the method:
The slight difference between DLS and TEM measurements is expected, as DLS measures the hydrodynamic diameter in solution, while TEM visualizes dehydrated NPs.
(§3) NP characterization was performed using FT-IR, NMR, DLS, and TEM. pH-responsive drug release was evaluated at pH values of 5.5, 6.5, and 7.4. For fluorescence imaging, NPs were labeled with ICG, Cy5 or Cy5.5.

A short description of data set [6]: Colloidal stability in physiological media over 5 days. The data set is classed as physicochemical. The settings on record: mean ± SD. Here is the method: The colloidal stability of mPEG@ELA-11 was evaluated in various physiological media over a 5-day period. The hydrodynamic diameter remained stable in PBS, serum, and 1640 culture medium, with only minor increases observed over time (Fig. 5E). On day 1, the sizes in PBS, serum, and 1640 medium were 36 ± 2.12, 43 ± 3.01, and 44 ± 4.53 nm, respectively. By day 5, these had increased slightly to 42 ± 3.36, 49 ± 3.49, and 50 ± 2.98 nm, respectively.

A short description of data set [7]: pH-responsive in vitro release of ELA-11. Type of data set: physicochemical. Here is the method:
To assess the pH-responsive release behavior of mPEG@ELA-11, in vitro release studies were conducted. […] At 12 h post-injection, only 45% of Cy5-mPEG@ELA-11 was degraded, while 70% of Cy5-ELA-11 had already been degraded.
as §3

Data set [8] has as its system ApoE^-/- mice. The data set can be described thus: Serum inflammatory markers and lipids in treated ApoE-/- mice. The data set is classed as in vivo.
Text: At the study endpoint, mice were euthanized under isoflurane anesthesia. Blood was collected for biochemical analysis, and the entire aorta was harvested from the ascending aorta to the iliac bifurcation. For en face analysis, aortas were stained with Oil Red O. The aortic root was sectioned for histological analysis, including Oil Red O, H&E, Masson’s trichrome, and immunofluorescence staining for CD31 and α-SMA.
The test system of data set [9] is ApoE^-/- mice. As to the kind of experiment: Biosafety evaluation in mice (histology, body weight, blood biochemistry). The settings on record: for histopathological changes in major organs (heart, liver, spleen, lungs, and kidneys): 1 mg/kg every 3 days; for tissue morphology of heart, liver, spleen, lungs, and kidneys (H&E), long-term toxicity: 1 mg/kg via the tail vein, once every 3 days for 2 consecutive months, n = 6; for changes in body weight: throughout the treatment period, n=6, p>0.05.
Experimental: To evaluate the safety and biocompatibility of the treatments, histological analysis was performed on major organs (heart, liver, spleen, lungs, and kidneys) from all groups.
At the study endpoint, mice were euthanized under isoflurane anesthesia. Blood was collected for biochemical analysis, and the entire aorta was harvested from the ascending aorta to the iliac bifurcation.
Histological examination of the heart, liver, spleen, lungs, and kidneys in different treatments groups which were respectively injected with the same dose (1 mg/kg) of PBS, ELA-11, and mPEG@ELA-11 via the tail vein, once every 3 days for 2 consecutive months. […] Representative images were chosen from n = 6 mice per group.

[10] abbreviates: n = 6, P < 0.05, the words describe the HFD group, i.e. treated groups lower.

Where two headings read alike, the source gives them in different places.

Regarding Tunicamycin, in the data set on RAW264.7 macrophages [1], the “effect of co-treatment on the protective (foam cell inhibiting) effect of ELA-11” value (shortened to “effect … (foam cell inhibiting) effect of ELA-11”) is on record as “significantly attenuated”. In addition, the “cytotoxicity (cell viability assay)” value with RAW264.7 macrophages [2] (CCK-8, ox-LDL-induced Raw264.7 macrophages, concentrations employed in the study, 24 and 48 hours, n=4, p > 0.05 (Fig. S1)) was “no significant cytotoxicity”. Moreover, the “effect of co-treatment on the suppression of ER stress markers by ELA-11” value (from here on “effect … of ER stress markers by ELA-11”) in [3] is reported as “diminished”. The “effect of co-treatment on the inhibition of AKT signaling by ELA-11” value in the data set with AKT phosphorylation is given as “maintained its inhibitory effect”.

For the compound “methoxy polyethylene glycol@Elabela-11 [mPEG@ELA-11]”, the “necrotic core size in aortic root sections, compared to free ELA-11” value in the data set with ApoE^-/- mice [4] (1 mg/kg i.p. every 3 days, H&E, n = 6, P < 0.05) is “more substantial decrease”. Besides, the “overall plaque area in aortic root sections, compared to free ELA-11” value in the data set with ApoE^-/- mice [4] (1 mg/kg i.p. every 3 days, Oil Red O, n = 6, P < 0.001) is on record as “more substantial decrease”. For the same compound, the “collagen content within the plaques (Masson's trichrome, aortic root)” value in the data set on ApoE^-/- mice [4] (1 mg/kg i.p. every 3 days, n = 6, P < 0.0001, no significant difference between the 2 treatment groups) is on record as “increased collagen content”. Moreover, in the data set on ApoE^-/- mice [4] (1 mg/kg i.p. every 3 days, n = 6, P < 0.001), the “atherosclerotic plaque area of the entire aorta (Oil Red O), compared to free ELA-11” value is “greater reduction”. Moreover, the “integrity of the vascular endothelium (CD31 immunofluorescence)” value in the data set on ApoE^-/- mice [4] (n = 6, P < 0.001, P < 0.0001) is “more effective than free ELA-11”. The “smooth muscle cell proliferation in the plaque area (α-SMA immunofluorescence)” value in the data set on ApoE^-/- mice [4] (vs ELA-11 and HFD + PBS group, n = 6, P < 0.05, P < 0.01) was “significantly inhibited smooth muscle cell proliferation”. Moreover, the “size (TEM)” value in data set [5] (dehydrated NPs) is on record as ~ 25 nm. For the same compound, the “hydrodynamic diameter (DLS)” value in data set [5] (in PBS) is reported as ~ 35 nm. In addition, the “hydrodynamic diameter, colloidal stability” value in [6] (1640 culture medium, day 1) turned out to be 44 ± 4.53 nm; in data set [6] (1640 culture medium, day 5), 50 ± 2.98 nm; in data set [6] (PBS, day 1), 36 ± 2.12 nm; in data set [6] (PBS, day 5), 42 ± 3.36 nm; in data set [6] (serum, day 1), 43 ± 3.01 nm; in [6] (serum, day 5), 49 ± 3.49 nm. Also, the “release of ELA-11” value was found to be 91.2% in data set [7] (pH 5.5, after 48 h); 74.1% in [7] (pH 6.5, after 48 h); 38.7% in [7] (pH 7.4, after 48 h). For the same compound, the “IL-1β levels in blood serum” value in the data set with ApoE^-/- mice [8] (HFD, among the groups, n = 6) is listed as “no significant differences”. For the same compound, the “IL-6 in blood serum compared to the HFD group” value with ApoE^-/- mice [8] (HFD, n = 6, P < 0.05) was “significantly lower”. In addition, the “TNF-α in blood serum compared to the HFD group” value in the data set with ApoE^-/- mice [8] (HFD, n = 6, P < 0.05) was “significantly lower”. Also, the “LDL-C: HFD group compared to the treatment group” value with ApoE^-/- mice [8] (setting [10]) is recorded as “significantly higher”. Moreover, the “total cholesterol: HFD group compared to the treatment group” value with ApoE^-/- mice [8] (setting [10]) is on record as “significantly higher”. The “triglycerides: HFD group compared to the treatment group” value in the data set on ApoE^-/- mice [8] (setting [10]) is “significantly higher”. Besides, the “histopathological changes in major organs (heart, liver, spleen, lungs, and kidneys)” value in the data set with ApoE^-/- mice [9] is on record as “No significant histopathological changes”. Moreover, the “tissue morphology of heart, liver, spleen, lungs, and kidneys (H&E), long-term toxicity” value with ApoE^-/- mice [9] is given as “no appreciable changes in tissue morphology”. Also, the “changes in body weight” value in the data set on ApoE^-/- mice [9] is on record as “No significant histopathological changes in any of the organs or abnormal changes in body weight were observed”.

With `O=C(O)CCCc1ccccc1` [4-PBA, 4-phenylbutyric acid], the “foam cell formation (Oil Red O), rescue experiment” value with RAW264.7 macrophages [1] (ox-LDL 50 μg/ml 48 h, cotreatment, P < 0.0001 vs ox-LDL group) is “comparable”.

As to `O=C(O)c1ccc(/C=C/S(=O)(=O)Cc2ccc(Cl)cc2)cc1` [Recilisib], the “effect … (foam cell inhibiting) effect of ELA-11” value in the data set with RAW264.7 macrophages [1] is listed as “reversed”. For the same compound, the “effect … of ER stress markers by ELA-11” value in data set [3] was “lost its inhibitory effect”.

In the case of `O=C(Oc1coc(CSc2ncccn2)cc1=O)c1ccc([N+](=O)[O-])cc1` [ML221], the “effect … (foam cell inhibiting) effect of ELA-11” value in the data set with RAW264.7 macrophages [1] is reported as “significantly attenuated”. Moreover, the “cytotoxicity (cell viability assay)” value in the data set on RAW264.7 macrophages [2] was “no significant cytotoxicity”. Moreover, in data set [3], the “effect … of ER stress markers by ELA-11” value is recorded as “partially reverse”. The “effect of co-treatment on the inhibition of AKT signaling by ELA-11” value in the data set on AKT phosphorylation is reported as “attenuated”.

Consider `CSCC[C@H](NC(=O)[C@@H](N)CS)C(=O)N1CCC[C@H]1C(=O)N[C@@H](CC(C)C)C(=O)N[C@@H](Cc1cnc[nH]1)C(=O)N[C@@H](CO)C(=O)N[C@@H](CCCNC(=N)N)C(=O)N[C@H](C(=O)N1CCC[C@H]1C(=O)N[C@@H](Cc1ccccc1)C(=O)N1CCC[C@H]1C(=O)O)C(C)C` [ELA-11], for which the “cytotoxicity (cell viability assay)” value in the data set on RAW264.7 macrophages [2] was “no significant cytotoxicity”. Moreover, in the data set with ApoE^-/- mice [9], the “histopathological changes in major organs (heart, liver, spleen, lungs, and kidneys)” value was “No significant histopathological changes”; the “tissue morphology of heart, liver, spleen, lungs, and kidneys (H&E), long-term toxicity” value was “no appreciable changes in tissue morphology”; the “changes in body weight” value is given as “No significant histopathological changes in any of the organs or abnormal changes in body weight were observed”.
